Results on two compounds are retold here after patent US8257478B2, “Use of marine fungus originated compounds as antifouling agents” (The Hong Kong University of Science and Technology, priority 2004, dated 2012).

Data set [1] deals with Balanus amphitrite larvae. The data set is described as follows: in vivo. Particulars: in vivo. The procedure: (§1) The larval bioassay was conducted according to Rittschof et al. (1994), which is incorporated by reference herein in its entirety.
(§2) Toxicity of cyclo (D)-Pro-(D)-Phe was determined using 24-well polystyrene plates. Pure compound was dissolved in DMSO and added to autoclaved FSW to form different concentrations. Competent Balanus amphitrites larvae (10±2 individuals) were added to each well with 1 ml testing solution in 5 replicates. The wells containing FSW served as the control. The 24-well plates were incubated at 30° C. for 24 h. The percent mortality was determined by counting the number of dead larvae under a dissecting microscope.
(§3) The assay was conducted according to Rittschof et al. (1994). Data plotted are means+SD of five replicates.

A short description of a further data set: in vivo. Particulars: Balanus amphitrite (barnacle) larvae, in vivo. The method, then: as §1, §2, §3
A short description of data set [2]: solubility in organic solvents. The format is physicochemical. The note with it: at 25° C. in methanol, ethanol, propanol, butanol, ethyl acetate, acetone and acetonitrile.
Data set [3] concerns Pseudoalteromonas piscida. In words: agar disc diffusion assay, inhibition zone. It is filed as cell-based. Particulars: 50 μg/disc, 30° C., 24 h, read-out: Inhibition Zone Width. The procedure: (§4) Antibacterial activity was tested against bacteria using an agar disc diffusion assay method. Sterile paper discs (6 mm i.d.) impregnated with the substance under test at a concentration of 50 μg disc^−1 were applied onto the surface of an agar plate (plastic Petri dish) inoculated with one strain with sterile forceps and gently pressed down to ensure good contact with the surface. Blank discs treated with the same volume of DMSO were added. A control disc, containing streptomycin was used. After the application of discs, the plates were incubated at 30° C. for 24 h, and then the size of the inhibition zone was measured.
as §4, with “using” for “using an”, “assay.” for “assay method.”, “disc” for “disc,”, “h. The” for “h, and then the”, “measured. The results are presented in Table 8 and Table 9 for Cyclo (D)-Pro-(D)-Phe and b3-methyl-N-(2-phenylethyl)butanamide, respectively.” for “measured.”
On the technique in general: Agar diffusion results depend on both activity and mobility in agar.

The test system of a further data set is Vibrio harveyi. In words: agar disc diffusion assay, inhibition zone. Particulars: 50 μg/disc, 30° C., 24 h, read-out: Inhibition Zone Width. The format is cell-based. The method, then:
as §4
as §4, with “using” for “using an”, “assay.” for “assay method.”, “disc” for “disc,”, “h. The” for “h, and then the”, “measured. The results are presented in Table 8 and Table 9 for Cyclo (D)-Pro-(D)-Phe and b3-methyl-N-(2-phenylethyl)butanamide, respectively.” for “measured.”

In the next data set the test system is Moraxella phenylpyruvica. The data set is described as follows: agar disc diffusion assay, inhibition zone. The note with it: Psychrobacter phenylpyruvicus; 50 μg/disc, 30° C., 24 h; read-out: Inhibition Zone Width. The format is cell-based. The method, then:
as §4
as §4, with “using” for “using an”, “assay.” for “assay method.”, “disc” for “disc,”, “h. The” for “h, and then the”, “measured. The results are presented in Table 8 and Table 9 for Cyclo (D)-Pro-(D)-Phe and b3-methyl-N-(2-phenylethyl)butanamide, respectively.” for “measured.”

Another data set deals with Vibrio fluvialis. The data set is described as follows: agar disc diffusion assay, inhibition zone. The note with it: 50 μg/disc, 30° C., 24 h, read-out: Inhibition Zone Width. It is filed as cell-based. The method, then: as §4
as §4, with “using” for “using an”, “assay.” for “assay method.”, “disc” for “disc,”, “h. The” for “h, and then the”, “measured. The results are presented in Table 8 and Table 9 for Cyclo (D)-Pro-(D)-Phe and b3-methyl-N-(2-phenylethyl)butanamide, respectively.” for “measured.”

Another data set has as its system Micrococcus luteus. In words: agar disc diffusion assay, inhibition zone. The format is cell-based. The note with it: 50 μg/disc, 30° C., 24 h, read-out: Inhibition Zone Width. The procedure: as §4
as §4, with “using” for “using an”, “assay.” for “assay method.”, “disc” for “disc,”, “h. The” for “h, and then the”, “measured. The results are presented in Table 8 and Table 9 for Cyclo (D)-Pro-(D)-Phe and b3-methyl-N-(2-phenylethyl)butanamide, respectively.” for “measured.”

Data set [4] relates to Staphylococcus haemolyticus. In words: agar disc diffusion assay, inhibition zone. It is filed as cell-based. The note with it: 50 μg/disc, 30° C., 24 h, read-out: Inhibition Zone Width. The procedure:
as §4
as §4, with “using” for “using an”, “assay.” for “assay method.”, “disc” for “disc,”, “h. The” for “h, and then the”, “measured. The results are presented in Table 8 and Table 9 for Cyclo (D)-Pro-(D)-Phe and b3-methyl-N-(2-phenylethyl)butanamide, respectively.” for “measured.”

For the next data set, the system named is Vibrio sp. (NAP-4). The data set is described as follows: agar disc diffusion assay, inhibition zone. The note with it: 50 μg/disc, 30° C., 24 h, read-out: Inhibition Zone Width. The format is cell-based. The procedure:
as §4
as §4, with “using” for “using an”, “assay.” for “assay method.”, “disc” for “disc,”, “h. The” for “h, and then the”, “measured. The results are presented in Table 8 and Table 9 for Cyclo (D)-Pro-(D)-Phe and b3-methyl-N-(2-phenylethyl)butanamide, respectively.” for “measured.”

For the next data set, the system named is Pseudoalteromonas sp. The data set is described as follows: agar disc diffusion assay, inhibition zone. The format is cell-based. The note with it: 50 μg/disc, 30° C., 24 h, read-out: Inhibition Zone Width. The procedure: as §4
as §4, with “using” for “using an”, “assay.” for “assay method.”, “disc” for “disc,”, “h. The” for “h, and then the”, “measured. The results are presented in Table 8 and Table 9 for Cyclo (D)-Pro-(D)-Phe and b3-methyl-N-(2-phenylethyl)butanamide, respectively.” for “measured.”

A further data set relates to Shewanella algae. The data set is described as follows: agar disc diffusion assay, inhibition zone. The format is cell-based. The note with it: 50 μg/disc, 30° C., 24 h, read-out: Inhibition Zone Width. The method, then: as §4
as §4, with “using” for “using an”, “assay.” for “assay method.”, “disc” for “disc,”, “h. The” for “h, and then the”, “measured. The results are presented in Table 8 and Table 9 for Cyclo (D)-Pro-(D)-Phe and b3-methyl-N-(2-phenylethyl)butanamide, respectively.” for “measured.”

For the next data set, the system named is Loktanella hongkongensis. The data set is described as follows: agar disc diffusion assay, inhibition zone. It is filed as cell-based. The note with it: Limimaricola hongkongensis; 50 μg/disc, 30° C., 24 h; read-out: Inhibition Zone Width. The method, then: as §4, with “using” for “using an”, “assay.” for “assay method.”, “disc” for “disc,”, “h. The” for “h, and then the”, “measured. The results are presented in Table 8 and Table 9 for Cyclo (D)-Pro-(D)-Phe and b3-methyl-N-(2-phenylethyl)butanamide, respectively.” for “measured.”

The subject of a further data set is Vibrio vulnificus. In words: agar disc diffusion assay, inhibition zone. It is filed as cell-based. Particulars: 50 μg/disc, 30° C., 24 h, read-out: Inhibition Zone Width. The procedure: as §4, with “using” for “using an”, “assay.” for “assay method.”, “disc” for “disc,”, “h. The” for “h, and then the”, “measured. The results are presented in Table 8 and Table 9 for Cyclo (D)-Pro-(D)-Phe and b3-methyl-N-(2-phenylethyl)butanamide, respectively.” for “measured.”

A further data set has as its system Vibrio alginolyticus. The data set is described as follows: agar disc diffusion assay, inhibition zone. It is filed as cell-based. Particulars: 50 μg/disc, 30° C., 24 h, read-out: Inhibition Zone Width. The method, then:
as §4, with “using” for “using an”, “assay.” for “assay method.”, “disc” for “disc,”, “h. The” for “h, and then the”, “measured. The results are presented in Table 8 and Table 9 for Cyclo (D)-Pro-(D)-Phe and b3-methyl-N-(2-phenylethyl)butanamide, respectively.” for “measured.”

A further data set has as its system Vibrio halioticoli. The data set is described as follows: agar disc diffusion assay, inhibition zone. The format is cell-based. Particulars: 50 μg/disc, 30° C., 24 h, read-out: Inhibition Zone Width. The method, then: as §4, with “using” for “using an”, “assay.” for “assay method.”, “disc” for “disc,”, “h. The” for “h, and then the”, “measured. The results are presented in Table 8 and Table 9 for Cyclo (D)-Pro-(D)-Phe and b3-methyl-N-(2-phenylethyl)butanamide, respectively.” for “measured.”

The next data set has as its system Rhodovulum sp. The data set is described as follows: agar disc diffusion assay, inhibition zone. It is filed as cell-based. Particulars: 50 μg/disc, 30° C., 24 h; read-out: Inhibition Zone Width. The method, then:
as §4, with “using” for “using an”, “assay.” for “assay method.”, “disc” for “disc,”, “h. The” for “h, and then the”, “measured. The results are presented in Table 8 and Table 9 for Cyclo (D)-Pro-(D)-Phe and b3-methyl-N-(2-phenylethyl)butanamide, respectively.” for “measured.”

For the next data set, the system named is Vibrio furnissii. The data set is described as follows: agar disc diffusion assay, inhibition zone. It is filed as cell-based. The note with it: 50 μg/disc, 30° C., 24 h, read-out: Inhibition Zone Width. The method, then:
as §4, with “using” for “using an”, “assay.” for “assay method.”, “disc” for “disc,”, “h. The” for “h, and then the”, “measured. The results are presented in Table 8 and Table 9 for Cyclo (D)-Pro-(D)-Phe and b3-methyl-N-(2-phenylethyl)butanamide, respectively.” for “measured.”

For data set [5], the system named is barnacle Balanus amphitrite larvae. In words: anti-larval settlement bioassay in 24-well plates. It is filed as in vivo. The procedure:
Anti-larval settlement activity of 3-chloro-2,5-dihydroxy benzyl alcohol (compound 1) was conducted using 24-well polystyrene plates. Pure compound was dissolved in DMSO and added to autoclaved FSW at different concentrations. Competent Balanus amphitrites larvae (10±2 individuals) were added to each well with 1 ml testing solution in 5 replicates, and wells containing FSW (filtered seawater) served as control. The 24-well plates were incubated at 30° C. for 24 h. The percent settlement was determined by counting the number of settled larvae under a dissecting microscope. In all bioassays, FSW served as the control. Statistical calculations were performed with the SPSS (Statistical Package for the Social Sciences) software package, Version 11.
as §1, §3
For determining anti-larval settlement activity, adult Balanus amphitrile (Darwin) were collected from the intertidal zone in Hong Kong (22°19′N, 114°16′E). Nauplii obtained from several adults were mass-reared to cyprid stage at a density of 2 larvae ml^−1 in 0.22-μm-filtered seawater with 30 ppt salinity (FSW) using Chaetoceros gracilis Schutt as food and a rearing temperature of 28° C. Newly transformed cyprids were used for the experiment.
Anti-larval settlement activity of succinic acid against B. amphitrite was determined using 24-well polystyrene plates. Pure compound was dissolved in autoclaved FSW ranged from 60-140 μg ml^−1 for B. amphitrite. Competent larvae (15±2 individuals) were added to each well with 1 ml testing solution in 5 replicates, and wells containing FSW served as the control. The 24-well plates were incubated at 30° C. for 24 h. The percent larval settlement was determined by counting the number of settled individuals under a dissecting microscope and expressed as a proportion of the total number of larvae in the well.

In brackets after ≈: the same amount, converted by molar mass.

In general, LC50 refers to the concentration that kills 50% of the test population. Low values mean a more lethal substance, high ones a less lethal substance. As usually defined, the EC50 is the concentration needed to bring the measured effect to its halfway point. Take `O=C1NC(Cc2ccccc2)C(=O)N2CCCC12` (stereo not drawn) [Compound 2, cyclo-(Pro-Phe)]: the “therapeutic ratio LC50/EC50” value in [1] (Balanus amphitrite, 24 h) is 1.70. The compound further came in with a median lethal concentration (LC50) at 24 h in “in vivo” of 115 µg/mL (≈ 470 µM). The solubility result in data set [2] was “soluble”. The zone of inhibition at 50 µg/disc in [3] amounted to 0 mm; in the data set on Vibrio harveyi, 0.5 mm; in the data set on Moraxella phenylpyruvica it was 0 mm; with Vibrio fluvialis, 1.2 ± 0.7 mm; in the data set on Micrococcus luteus, 0.5 mm; in data set [4], 0.8 ± 0.3 mm. Besides, the zone of inhibition at 50 µg/disc with Vibrio sp. (NAP-4) came out at 1.3 ± 0.6 mm; in the data set with Pseudoalteromonas sp., 1.7 ± 0.6 mm; in the data set with Shewanella algae it was 0 mm; in the data set on Loktanella hongkongensis it was 1.3 ± 0.6 mm; with Vibrio vulnificus it was 1 ± 0.1 mm; in the data set with Vibrio alginolyticus, 0 mm. Besides, the zone of inhibition at 50 µg/disc in the data set with Vibrio halioticoli, in the data set on Rhodovulum sp. and in the data set with Vibrio furnissii was 0 mm each time. In addition, the EC50 in data set [5] (Amphibalanus amphitrite, Balanus amphitrite larvae, read-out: EC50 (anti-larval settlement)) came to 67.3 µg/mL (≈ 275 µM).

As for `O=C(O)CCC(=O)O` [Compound 4, succinic acid], the “therapeutic ratio LC50/EC50” value in [1] worked out at 94.1. Further, the “concentration showing anti-larval settlement effects” value in data set [5] (tested range 60-140 μg ml^−1, 24 h) was determined as 110 µg/mL.
